Here are results for 19 compounds from PubChem BioAssay (NCI).

Test systems include HT29 colon; KM12 colon; MDA-MB-231 breast; NCI-H522 lung; NCI/ADR-RES ovarian; OVCAR-4 ovarian; SF-295 CNS; SK-MEL-28 melanoma; SW-620 colon; UACC-62 melanoma.
What all share (assay): NCI-60 cell line screen, 48 h

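96-well plates; 48 h exposure; 5 concentrations. Endpoints by linear interpolation between flanking doses. Not reached: highest tested concentration assigned. TGI is the concentration that stops growth completely.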

On to `Brc1ccc(/C(N=N/C(=N\Sc2ccccc2)c2ccc(Br)cc2)=N/Sc2ccccc2)cc1`, for which the TGI with HT29 colon, in the experiment with KM12 colon, in the experiment on MDA-MB-231 breast, with NCI-H522 lung, with NCI/ADR-RES ovarian and with OVCAR-4 ovarian was over 100 µM in each case. The TGI in the experiment on SF-295 CNS, in the experiment on SK-MEL-28 melanoma, with SW-620 colon and with UACC-62 melanoma was over 100 µM throughout.

Take `O=C(O[C@@H](/C=C/c1ccccc1)P1(=O)N(Cc2ccccc2)[C@@H]2CCCC[C@H]2N1Cc1ccccc1)c1ccccc1`: the TGI in the experiment with HT29 colon was over 100 µM; with KM12 colon, 15.5 µM; with MDA-MB-231 breast, 9.18 µM; with NCI-H522 lung, over 100 µM; with NCI/ADR-RES ovarian, over 100 µM; with OVCAR-4 ovarian, 6.33 µM. Further, the TGI in the experiment on SF-295 CNS, with SK-MEL-28 melanoma, in the experiment with SW-620 colon and with UACC-62 melanoma was over 100 µM in each case.

As to `Cn1c2ccccc2c2c3c(=O)[nH][nH]c(=O)c3c3c4ccccc4n(C)c3c21`, the TGI in the experiment with HT29 colon, with KM12 colon, in the experiment on MDA-MB-231 breast, in the experiment with NCI-H522 lung, in the experiment with NCI/ADR-RES ovarian and in the experiment with OVCAR-4 ovarian was over 100 µM throughout. Further, the TGI in the experiment with SF-295 CNS, in the experiment with SK-MEL-28 melanoma, with SW-620 colon and with UACC-62 melanoma was over 100 µM each time.

With `COc1ccc2c(c1)-c1nc(=S)n(CCN(C)C)c3ccc([N+](=O)[O-])c(c13)N2`, the TGI in the experiment with HT29 colon was found to be 2.25 µM; in the experiment on KM12 colon it was 6.27 µM; in the experiment on MDA-MB-231 breast, 2.68 µM; with NCI-H522 lung it was 2.04 µM; in the experiment with NCI/ADR-RES ovarian, 3.61 µM; in the experiment on OVCAR-4 ovarian, 13.3 µM. Moreover, the TGI with SF-295 CNS came out at 18.3 µM; with SK-MEL-28 melanoma, 2.88 µM; in the experiment on SW-620 colon, 3.07 µM; with UACC-62 melanoma, 23.5 µM.

In the case of `CC(C)(C)[Si](C)(C)OC1CCOC1(O)c1ccccn1` (stereo unspecified), the TGI in the experiment on HT29 colon, with KM12 colon, in the experiment with MDA-MB-231 breast, in the experiment with NCI-H522 lung, in the experiment on NCI/ADR-RES ovarian and in the experiment with OVCAR-4 ovarian was over 100 µM throughout. Also, the TGI with SF-295 CNS, with SK-MEL-28 melanoma, in the experiment with SW-620 colon and in the experiment with UACC-62 melanoma was over 100 µM in each case.

On to `CN(C)CN1C(=O)/C(=N\n2c(-c3ccncc3)n[nH]c2=S)c2ccccc21`, for which the TGI in the experiment with HT29 colon is 61.5 µM; with KM12 colon, over 100 µM; in the experiment on MDA-MB-231 breast, over 100 µM; in the experiment on NCI-H522 lung, 45.1 µM; in the experiment with NCI/ADR-RES ovarian it was over 100 µM; in the experiment on OVCAR-4 ovarian, 45.2 µM. In addition, the TGI in the experiment with SF-295 CNS, with SK-MEL-28 melanoma, in the experiment on SW-620 colon and in the experiment with UACC-62 melanoma was over 100 µM in each case.

With `O=C1CCC(CCc2nc3ccccc3[nH]2)(c2ccccc2)C(=O)N1` (stereo unspecified), the TGI in the experiment with HT29 colon, in the experiment on KM12 colon, in the experiment with MDA-MB-231 breast, in the experiment on NCI-H522 lung, in the experiment with NCI/ADR-RES ovarian and with OVCAR-4 ovarian was over 100 µM each time. Moreover, the TGI with SF-295 CNS, with SK-MEL-28 melanoma, with SW-620 colon and with UACC-62 melanoma was over 100 µM throughout.

On to `Cc1ccc(S(=O)(=O)N2CCc3cc(O)c([N+](=O)[O-])cc32)cc1`, for which the TGI with KM12 colon, with MDA-MB-231 breast, with NCI-H522 lung, in the experiment with NCI/ADR-RES ovarian, with OVCAR-4 ovarian and in the experiment with SF-295 CNS was over 100 µM throughout. In addition, the TGI in the experiment with SK-MEL-28 melanoma, in the experiment on SW-620 colon and in the experiment with UACC-62 melanoma was over 100 µM in each case.

As to `CC(C)(C)C#CI1OC(=O)c2ccccc21`, the TGI in the experiment on HT29 colon is 22.8 µM; in the experiment with KM12 colon, 18.4 µM; in the experiment with MDA-MB-231 breast, 34 µM; with NCI-H522 lung, 3.82 µM; in the experiment on NCI/ADR-RES ovarian, over 45.4 µM; with OVCAR-4 ovarian, 8.08 µM. The TGI was determined as 28.2 µM in the experiment on SF-295 CNS, 17.8 µM with SK-MEL-28 melanoma, 10.3 µM in the experiment with SW-620 colon and 13.8 µM in the experiment on UACC-62 melanoma.

On to `Brc1ccc2[nH]cc(-c3csc(-c4c[nH]c5ccc(Br)cc45)n3)c2c1`, for which the TGI is 3.16 µM in the experiment with HT29 colon; 2.95 µM in the experiment on KM12 colon; 3.38 µM with MDA-MB-231 breast; 3.39 µM in the experiment on NCI-H522 lung; 6.29 µM with NCI/ADR-RES ovarian; 7.59 µM in the experiment with OVCAR-4 ovarian. For the same compound, the TGI in the experiment on SF-295 CNS was 6.32 µM; with SK-MEL-28 melanoma, 5.31 µM; in the experiment with SW-620 colon it was 4.42 µM; in the experiment on UACC-62 melanoma it was 4.09 µM.

In the case of `COC(=O)Cc1c2n(c3ccccc13)C(=O)N1c3ccccc3C(CC(=O)OC)C21` (stereo unspecified), the TGI in the experiment with HT29 colon is over 100 µM; with MDA-MB-231 breast it was 67.3 µM; with NCI-H522 lung it was over 100 µM; with NCI/ADR-RES ovarian it was over 100 µM; with OVCAR-4 ovarian, 57.1 µM; in the experiment with SF-295 CNS, 68.2 µM. Further, the TGI in the experiment with SK-MEL-28 melanoma, in the experiment on SW-620 colon and in the experiment on UACC-62 melanoma was over 100 µM each time.

Regarding `Fc1ccc(OCc2ccc3nc(-c4ccccc4)c(Cl)nc3c2)cc1`, the TGI is over 100 µM with HT29 colon; over 100 µM in the experiment on KM12 colon; 47.3 µM in the experiment on MDA-MB-231 breast; 24.4 µM in the experiment on NCI-H522 lung; over 100 µM in the experiment with NCI/ADR-RES ovarian; over 100 µM in the experiment on OVCAR-4 ovarian. The TGI with SF-295 CNS was 50.3 µM; in the experiment on SK-MEL-28 melanoma, over 100 µM; in the experiment on SW-620 colon it was over 100 µM; in the experiment on UACC-62 melanoma, over 100 µM.

Regarding `COC(=O)c1ccc2cc(O)ccc2c1`, the TGI with HT29 colon, in the experiment on KM12 colon, in the experiment with MDA-MB-231 breast, in the experiment on NCI-H522 lung, in the experiment on NCI/ADR-RES ovarian and in the experiment on OVCAR-4 ovarian was over 100 µM each time. In addition, the TGI in the experiment on SF-295 CNS, with SK-MEL-28 melanoma, in the experiment on SW-620 colon and with UACC-62 melanoma was over 100 µM each time.

For the compound `C=C1C[C@@H]2CC[C@@]34CC5O[C@H]6C(O[C@H]7CC[C@H](CC(=O)O[C@@H]8[C@@H](C)[C@@H]9O[C@@H]%10C[C@]%11(C[C@@H]%12O[C@]%13(C[C@H](C)[C@@H]%14O[C@@H]%15CC(C(COC(C)=O)OC(C)=O)O[C@@H]%15C[C@@H]%14O%13)C[C@H](C)[C@@H]%12O%11)O[C@@H]%10C[C@@H]9O[C@H]8CC8O[C@@H](CC[C@@H]1O2)C[C@@H](C)C8(O)CO)O[C@@H]7[C@@H]6O3)[C@H]5O4` (stereo partly specified), the TGI was over 0.792 µM in the experiment with KM12 colon; over 1 µM in the experiment on MDA-MB-231 breast; 0.417 µM in the experiment on NCI-H522 lung; over 1 µM with NCI/ADR-RES ovarian; over 1 µM in the experiment on OVCAR-4 ovarian; over 1 µM in the experiment on SF-295 CNS. The TGI with SK-MEL-28 melanoma, with SW-620 colon and in the experiment on UACC-62 melanoma was over 1 µM each time.

Consider `CCOC(=O)c1c(-c2ccc(OC)cc2)c(C#N)c(=S)n(C2OC(CO)C(O)C(O)C2O)c1C` (stereo unspecified), for which the TGI with HT29 colon, with KM12 colon, with MDA-MB-231 breast, in the experiment on NCI-H522 lung, with NCI/ADR-RES ovarian and in the experiment with OVCAR-4 ovarian was over 100 µM in each case. Moreover, the TGI in the experiment with SF-295 CNS, in the experiment on SK-MEL-28 melanoma and in the experiment with SW-620 colon was over 100 µM each time.

As for `CC(C)NC(=O)OCc1c(COC(=O)NC(C)C)n(C)c2c1ccc1cc(Cl)c(Cl)cc12`, the TGI in the experiment on HT29 colon came to 29.3 µM; in the experiment on MDA-MB-231 breast it was 25.3 µM; in the experiment on NCI-H522 lung, 13.1 µM; in the experiment on NCI/ADR-RES ovarian, 36.8 µM; with OVCAR-4 ovarian it was 54.8 µM; in the experiment with SF-295 CNS it was 30.8 µM. The TGI in the experiment on SW-620 colon is 23.5 µM; with UACC-62 melanoma, 28 µM.

`CC1=NN(c2cccc(Cl)c2)C2(C1=Cc1ccc(N(C)C)cc1)C(Cl)C(=O)N2c1nc2ccccc2s1` (stereo unspecified): the TGI is over 100 µM with HT29 colon; 38.5 µM in the experiment with KM12 colon; over 100 µM with MDA-MB-231 breast; 43.1 µM in the experiment on NCI-H522 lung; over 100 µM in the experiment with NCI/ADR-RES ovarian; over 100 µM in the experiment on OVCAR-4 ovarian. Besides, the TGI in the experiment on SF-295 CNS, in the experiment on SK-MEL-28 melanoma and with SW-620 colon was over 100 µM throughout.

With `C=CCN(c1cc(OC)c2[nH]c(C(=O)O)c(C)c2c1[N+](=O)[O-])S(C)(=O)=O`, the TGI with KM12 colon, in the experiment on MDA-MB-231 breast, with NCI-H522 lung, in the experiment on NCI/ADR-RES ovarian, in the experiment on OVCAR-4 ovarian and with SF-295 CNS was over 100 µM in each case. The TGI in the experiment with SK-MEL-28 melanoma, in the experiment with SW-620 colon and in the experiment with UACC-62 melanoma was over 100 µM throughout.

`CN(C)CCN1C(=O)N(CCN(C)C)c2c3cc(O)ccc3nc3c([N+](=O)[O-])ccc1c23`: the TGI in the experiment on HT29 colon came to 20.1 µM; in the experiment with KM12 colon, 23.3 µM; in the experiment on MDA-MB-231 breast, 25.4 µM; with NCI-H522 lung, 33.3 µM; in the experiment with NCI/ADR-RES ovarian it was 86.3 µM; in the experiment on OVCAR-4 ovarian, 28.4 µM. In addition, the values for the TGI in the experiment on SK-MEL-28 melanoma, with SW-620 colon and with UACC-62 melanoma were 58.5 µM, 24.7 µM and 30.8 µM, respectively.
